These molecules were tested against GST tagged truncated human mutant G2019S LRRK2 (Homo sapiens (Human), UniProt Q5S007, G2019S) (assay: LRRK2 Km ATP LanthaScreen Assay). Conditions: G2019S LRRK2, 134 μM ATP (Km ATP), mean values.
Chain of GST tagged truncated human mutant G2019S LRRK2 (Q5S007 970-2527 G2019S): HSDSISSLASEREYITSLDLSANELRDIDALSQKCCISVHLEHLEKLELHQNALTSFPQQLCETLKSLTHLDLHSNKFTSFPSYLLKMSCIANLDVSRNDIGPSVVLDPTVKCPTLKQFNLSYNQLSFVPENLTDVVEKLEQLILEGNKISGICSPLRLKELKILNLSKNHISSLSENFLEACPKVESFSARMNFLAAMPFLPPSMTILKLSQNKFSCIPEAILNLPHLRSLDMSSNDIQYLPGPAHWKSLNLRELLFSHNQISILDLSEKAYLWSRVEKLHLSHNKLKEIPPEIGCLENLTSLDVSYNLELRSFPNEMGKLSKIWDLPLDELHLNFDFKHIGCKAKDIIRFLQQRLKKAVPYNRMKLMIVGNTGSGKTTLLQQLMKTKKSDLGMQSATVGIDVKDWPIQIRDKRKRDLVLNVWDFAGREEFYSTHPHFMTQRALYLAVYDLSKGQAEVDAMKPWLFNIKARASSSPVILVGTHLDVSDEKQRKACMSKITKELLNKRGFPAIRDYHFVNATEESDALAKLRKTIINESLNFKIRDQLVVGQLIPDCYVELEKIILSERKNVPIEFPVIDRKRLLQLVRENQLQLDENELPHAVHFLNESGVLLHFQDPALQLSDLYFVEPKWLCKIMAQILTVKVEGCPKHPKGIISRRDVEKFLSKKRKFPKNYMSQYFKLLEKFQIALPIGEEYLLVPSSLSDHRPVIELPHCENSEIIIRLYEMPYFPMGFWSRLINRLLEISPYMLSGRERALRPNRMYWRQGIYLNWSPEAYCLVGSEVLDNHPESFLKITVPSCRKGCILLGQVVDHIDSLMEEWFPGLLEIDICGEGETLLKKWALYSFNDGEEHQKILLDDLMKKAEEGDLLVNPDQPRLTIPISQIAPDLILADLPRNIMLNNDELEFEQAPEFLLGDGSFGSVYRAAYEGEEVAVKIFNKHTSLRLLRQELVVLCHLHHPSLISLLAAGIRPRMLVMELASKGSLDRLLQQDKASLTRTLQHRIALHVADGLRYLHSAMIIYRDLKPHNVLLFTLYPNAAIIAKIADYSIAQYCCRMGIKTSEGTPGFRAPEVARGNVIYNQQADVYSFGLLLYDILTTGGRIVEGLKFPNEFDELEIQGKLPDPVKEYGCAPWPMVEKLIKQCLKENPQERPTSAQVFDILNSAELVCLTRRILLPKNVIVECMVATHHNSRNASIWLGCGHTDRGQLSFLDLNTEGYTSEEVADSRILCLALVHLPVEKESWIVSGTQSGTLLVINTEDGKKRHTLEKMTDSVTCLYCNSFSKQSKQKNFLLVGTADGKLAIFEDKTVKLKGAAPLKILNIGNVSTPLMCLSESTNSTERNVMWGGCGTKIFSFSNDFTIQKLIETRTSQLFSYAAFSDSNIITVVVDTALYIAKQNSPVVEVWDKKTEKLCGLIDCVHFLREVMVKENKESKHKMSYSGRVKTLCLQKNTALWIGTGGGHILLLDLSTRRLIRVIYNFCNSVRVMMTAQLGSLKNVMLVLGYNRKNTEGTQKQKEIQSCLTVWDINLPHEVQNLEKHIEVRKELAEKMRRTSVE
Assay type: biochemical
In short: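 Enzyme (GST-tagged, truncated) was preincubated with compound for 15 min at RT in 50 mM Tris pH 8.5, 10 mM MgCl2, 0.01% Brij-35, 1 mM EGTA, 2 mM DTT and 0.05 mM orthovanadate. Fluorescein-LRRKtide and 134 μM ATP (Km) were then added for 90 min. EDTA and Tb-anti-pERM antibody stopped the reaction; the TR-FRET 520/495 ratio gave 4-parameter IC50s, reported as mean pIC50.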
With Cn1ncc(Nc2ncc3cc(Cl)c([C@@H]4CCN([C@@]5(C)COC[C@H]5O)C[C@H]4F)cc3n2)c1Cl (single isomer, unassigned) [Ex-4.234, (3S,4S)(3S,4S) or (3S,4S)(3R,4R) or (3R,4R)(3S,4S) or (3R,4R)(3R,4R) 4-(4-{6-chloro-2-[(5-chloro-1-methyl-1H-pyrazol-4-yl)amino]quinazolin-7-yl}-3-fluoropiperidin-1-yl)-4-methyloxolan-3-ol] the “LRRK2 pIC50” value was 7.23. Cc1cc(Nc2ncc3cc(Cl)c(C4CCN(C5COCC5O)CC4F)cc3n2)n(C)n1 (single isomer, unassigned) [Ex-4.235, (3S,4S)(3S,4S) or (3S,4S)(3R,4R) or (3R,4R)(3S,4S) or (3R,4R)(3R,4R) 4-(4-{6-chloro-2-[(1,3-dimethyl-1H-pyrazol-5-yl)amino]quinazolin-7-yl}-3-fluoropiperidin-1-yl)oxolan-3-ol] was tested, and the “LRRK2 pIC50” value was 8.84. For Cc1cc(Nc2ncc3cc(Cl)c(C4CCN(C5COCC5O)CC4F)cc3n2)n(C)n1 (single isomer, unassigned) [Ex-4.236, (3S,4S)(3S,4S) or (3S,4S)(3R,4R) or (3R,4R)(3S,4S) or (3R,4R)(3R,4R) 4-(4-{6-chloro-2-[(1,3-dimethyl-1H-pyrazol-5-yl)amino]quinazolin-7-yl}-3-fluoropiperidin-1-yl)oxolan-3-ol], the “LRRK2 pIC50” value was 6.61. In the case of Cn1ncc(Nc2ncc3cc(Cl)c([C@@H]4CCN([C@@]5(C)COC[C@H]5O)C[C@H]4F)cc3n2)c1Cl (single isomer, unassigned) [Ex-4.238, (3S,4S)(3S,4S) or (3S,4S)(3R,4R) or (3R,4R)(3S,4S) or (3R,4R)(3R,4R) 4-(4-{6-chloro-2-[(5-chloro-1-methyl-1H-pyrazol-4-yl)amino]quinazolin-7-yl}-3-fluoropiperidin-1-yl)-4-methyloxolan-3-ol], the “LRRK2 pIC50” value is reported as 7.40. With Cn1ncc(Nc2ncc3cc(Cl)c([C@@H]4CCN([C@@H]5COC[C@@H]5O)C[C@H]4F)cc3n2)c1C1CC1 (single isomer, unassigned) [Ex-4.239, (3S,4S)(3S,4S) or (3S,4S)(3R,4R) or (3R,4R)(3S,4S) or (3R,4R)(3R,4R) 4-(4-{6-chloro-2-[(5-cyclopropyl-1-methyl-1H-pyrazol-4-yl)amino]quinazolin-7-yl}-3-fluoropiperidin-1-yl)oxolan-3-ol] the “LRRK2 pIC50” value was >9.20. With Cn1ncc(Nc2ncc3cc(Cl)c([C@@H]4CCN([C@H]5COC[C@H]5O)C[C@H]4F)cc3n2)c1C1CC1 (single isomer, unassigned) [Ex-4.240, (3S,4S)(3S,4S) or (3S,4S)(3R,4R) or (3R,4R)(3S,4S) or (3R,4R)(3R,4R) 4-(4-{6-chloro-2-[(5-cyclopropyl-1-methyl-1H-pyrazol-4-yl)amino]quinazolin-7-yl}-3-fluoropiperidin-1-yl)oxolan-3-ol] the “LRRK2 pIC50” value was 7.57. Cn1ncc(Nc2ncc3cc(Cl)c([C@H]4CCN([C@@H]5COC[C@@H]5O)C[C@@H]4F)cc3n2)c1C1CC1 (single isomer, unassigned) [Ex-4.241, (3S,4S)(3S,4S) or (3S,4S)(3R,4R) or (3R,4R)(3S,4S) or (3R,4R)(3R,4R) 4-(4-{6-chloro-2-[(5-cyclopropyl-1-methyl-1H-pyrazol-4-yl)amino]quinazolin-7-yl}-3-fluoropiperidin-1-yl)oxolan-3-ol] was tested, and the “LRRK2 pIC50” value was >9.20. With Cn1ncc(Nc2ncc3cc(Cl)c([C@H]4CCN([C@H]5COC[C@H]5O)C[C@@H]4F)cc3n2)c1C1CC1 (single isomer, unassigned) [Ex-4.242, (3S,4S)(3S,4S) or (3S,4S)(3R,4R) or (3R,4R)(3S,4S) or (3R,4R)(3R,4R) 4-(4-{6-chloro-2-[(5-cyclopropyl-1-methyl-1H-pyrazol-4-yl)amino]quinazolin-7-yl}-3-fluoropiperidin-1-yl)oxolan-3-ol] the “LRRK2 pIC50” value was 7.67. With Cc1cc2cnc(Nc3cnn(C4CC4)c3Cl)nc2cc1C1CCN([C@@H]2COC[C@@H]2O)[C@@H](C)C1 (single isomer, unassigned) [Ex-4.243, (3S,4S)(2S) or (3R,4R)(2S) 4-[4-{2-[(5-chloro-1-cyclopropyl-1H-pyrazol-4-yl)amino]-6-methylquinazolin-7-yl}-2-methylpiperidin-1-yl]oxolan-3-ol] the “LRRK2 pIC50” value was >9.20. In the case of CO[C@H]1COC[C@H]1N1CC[C@@H](c2cc3nc(Nc4cnn(C5CC5(F)F)c4Cl)ncc3cc2C)[C@H](F)C1 (single isomer, unassigned) [Ex-4.244, (R)(3S,4S)(3S,4S) or (R)(3S,4S)(3R,4R) or (R)(3R,4R)(3S,4S) or (R)(3R,4R)(3R,4R) or (S)(3S,4S)(3S,4S) or (S)(3S,4S)(3R,4R) or (S)(3R,4R)(3S,4S) or (S)(3R,4R)(3R,4R) N-[5-chloro-1-(2,2-difluorocyclopropyl)-1H-pyrazol-4-yl]-7-[3-fluoro-1-(4-methoxyoxolan-3-yl)piperidin-4-yl]-6-methylquinazolin-2-amine], the “LRRK2 pIC50” value is reported as >9.20. With Cn1nc(C(C)(C)C)cc1Nc1ncc2cc(Cl)c([C@@H]3CCN([C@]4(C)COC[C@@H]4O)C[C@H]3F)cc2n1 (single isomer, unassigned) [Ex-4.245, (3S,4S)(3S,4S) or (3S,4S)(3R,4R) or (3R,4R)(3S,4S) or (3R,4R)(3R,4R) 4-(4-{2-[(3-tert-butyl-1-methyl-1H-pyrazol-5-yl)amino]-6-chloroquinazolin-7-yl}-3-fluoropiperidin-1-yl)-4-methyloxolan-3-ol] the “LRRK2 pIC50” value was >9.20. In the case of CO[C@@H]1COC[C@@H]1N1CC[C@@H](c2cc3nc(Nc4cnn(C5CC5(F)F)c4Cl)ncc3cc2C)[C@H](F)C1 (single isomer, unassigned) [Ex-4.246, (R)(3S,4S)(3S,4S) or (R)(3S,4S)(3R,4R) or (R)(3R,4R)(3S,4S) or (R)(3R,4R)(3R,4R) or (S)(3S,4S)(3S,4S) or (S)(3S,4S)(3R,4R) or (S)(3R,4R)(3S,4S) or (S)(3R,4R)(3R,4R) N-[5-chloro-1-(2,2-difluorocyclopropyl)-1H-pyrazol-4-yl]-7-[3-fluoro-1-(4-methoxyoxolan-3-yl)piperidin-4-yl]-6-methylquinazolin-2-amine], the “LRRK2 pIC50” value is reported as 8.22. For C[C@]1(N2CC[C@@H](c3cc4nc(Nc5cnn(C6CC6)c5Cl)ncc4cc3Cl)[C@H](F)C2)COC[C@H]1O (single isomer, unassigned) [Ex-4.247, (3S,4S)(3S,4S) or (3S,4S)(3R,4R) or (3R,4R)(3S,4S) or (3R,4R)(3R,4R) 4-(4-{6-chloro-2-[(5-chloro-1-cyclopropyl-1H-pyrazol-4-yl)amino]quinazolin-7-yl}-3-fluoropiperidin-1-yl)-4-methyloxolan-3-ol], the “LRRK2 pIC50” value was >9.20. With CO[C@H]1COC[C@H]1N1CC[C@@H](c2cc3nc(Nc4cnn(C5CC5)c4Cl)ncc3cc2C)[C@H](F)C1 (single isomer, unassigned) [Ex-4.248, (3S,4S)(3S,4S) or (3S,4S)(3R,4R) or (3R,4R)(3S,4S) or (3R,4R)(3R,4R)N-(5-chloro-1-cyclopropyl-1H-pyrazol-4-yl)-7-[3-fluoro-1-(4-methoxyoxolan-3-yl)piperidin-4-yl]-6-methylquinazolin-2-amine] the “LRRK2 pIC50” value was >9.20.

Source: patent US12540131B2 (Merck Sharp & Dohme LLC, priority 2019, dated 2026)
